Results on 14 molecules are retold here after PubChem BioAssay (NCI).

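Cells were grown in 96-well plates and exposed to each compound for 48 hours at five concentrations; endpoints were interpolated linearly between bracketing concentrations, or set to the highest concentration if not reached. TGI: concentration producing complete growth inhibition.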

Some test systems named below: MALME-3M melanoma; T-47D breast; A549 NSCLC; MDA-MB-435; SK-OV-3 ovarian; HCC-2998 colon; MDA-MB-231 breast; HCT-15 colon; SNB-19 CNS; KM12 colon.
What all share (assay): inhibition of tumour cell growth, NCI panel, 48 h

With `Cc1oc2c(c1C)S(=O)(=O)C(C#N)=C(N(C)C)N2`, the TGI in the assay on MALME-3M melanoma, with T-47D breast, in the assay with A549 NSCLC, with MDA-MB-435, in the assay with SK-OV-3 ovarian and with HCC-2998 colon was more than 100 µM each time. The TGI with MDA-MB-231 breast, in the assay on HCT-15 colon, in the assay on SNB-19 CNS and in the assay with KM12 colon was more than 100 µM in each case.

For `COC1=CC(=O)CC(C)C12Oc1c(Cl)c(OC)cc(OC)c1C2=O` (configuration not stated), the TGI in the assay on MALME-3M melanoma is more than 100 µM; with T-47D breast, more than 100 µM; in the assay on A549 NSCLC, more than 100 µM; in the assay with MDA-MB-435, 6.42 µM; with SK-OV-3 ovarian, more than 100 µM; in the assay on HCC-2998 colon, more than 100 µM. The TGI in the assay with MDA-MB-231 breast was 32.5 µM; in the assay with HCT-15 colon, more than 100 µM; in the assay with SNB-19 CNS it was more than 100 µM; with KM12 colon, more than 100 µM.

With `O=C1C(Cl)=C(N(C(=O)c2ccccc2)C(=O)c2ccccc2)C(=O)c2ccccc21`, the TGI with T-47D breast is 32.3 µM; in the assay on A549 NSCLC, more than 100 µM; in the assay with MDA-MB-435, 32.4 µM; in the assay with SK-OV-3 ovarian it was more than 100 µM; in the assay on HCC-2998 colon it was 37.4 µM; in the assay on MDA-MB-231 breast, more than 100 µM. Moreover, the values for the TGI in the assay on HCT-15 colon, in the assay on SNB-19 CNS and in the assay on KM12 colon were 9 µM, more than 100 µM and 15.7 µM, respectively.

For `O=C(Nc1cccc([N+](=O)[O-])c1)c1n[nH]n(-c2cccc([N+](=O)[O-])c2)c1=O`, the TGI with MALME-3M melanoma, with T-47D breast, with A549 NSCLC, in the assay with MDA-MB-435, with SK-OV-3 ovarian and with MDA-MB-231 breast was more than 100 µM in each case. Also, the TGI in the assay on SNB-19 CNS and with KM12 colon was more than 100 µM in each case.

Take `CCCCCCCCCCCCCCCCOP(=O)(O)OCC(N)C(=O)O` (configuration not stated): the TGI with MALME-3M melanoma is more than 100 µM; in the assay on T-47D breast, more than 100 µM; with A549 NSCLC, 53.1 µM; with MDA-MB-435, 39.8 µM; in the assay with SK-OV-3 ovarian, 63.8 µM; with HCC-2998 colon it was more than 100 µM. For the same molecule, the TGI with MDA-MB-231 breast worked out at 47.4 µM; with HCT-15 colon, 61.3 µM; with SNB-19 CNS, 35.9 µM; in the assay with KM12 colon, 30.2 µM.

With `COC1=CC2(CC(OC)=C1OC)OC21COc2ccccc2C1=O` (configuration not stated), the TGI in the assay on MALME-3M melanoma, with T-47D breast, in the assay on A549 NSCLC, with MDA-MB-435, in the assay with SK-OV-3 ovarian and in the assay with HCC-2998 colon was more than 100 µM throughout. For the same molecule, the TGI in the assay on MDA-MB-231 breast, in the assay with HCT-15 colon, in the assay on SNB-19 CNS and in the assay with KM12 colon was more than 100 µM throughout.

For the molecule `O=c1oc2ccccc2cc1-c1cn2c(n1)sc1ccccc12`, the TGI with T-47D breast, in the assay on A549 NSCLC, in the assay with MDA-MB-435, in the assay on SK-OV-3 ovarian, with HCC-2998 colon and in the assay with MDA-MB-231 breast was more than 100 µM each time. The TGI in the assay with HCT-15 colon and in the assay with KM12 colon was more than 100 µM each time.

In the case of `Cn1c(CO)ccc1-c1ccc(-c2ccc[se]2)[se]1`, the TGI in the assay with MALME-3M melanoma was more than 100 µM; in the assay with T-47D breast it was more than 100 µM; in the assay with A549 NSCLC, more than 100 µM; in the assay with MDA-MB-435, 26.2 µM; in the assay with SK-OV-3 ovarian, 27.2 µM; with HCC-2998 colon it was more than 47.7 µM. Further, the TGI with MDA-MB-231 breast was 60 µM; in the assay on HCT-15 colon it was more than 100 µM; in the assay on SNB-19 CNS, more than 100 µM; with KM12 colon, more than 100 µM.

For `COc1ccc(C2C(C#N)=C(S)N(C3OC(COC(C)=O)C(OC(C)=O)C(OC(C)=O)C3OC(C)=O)C(c3ccccc3)=C2C(C)=O)cc1` (configuration not stated), the TGI in the assay with MALME-3M melanoma was more than 100 µM; in the assay with T-47D breast it was 80.1 µM; in the assay on A549 NSCLC, more than 100 µM; in the assay with MDA-MB-435, more than 100 µM; in the assay with HCC-2998 colon it was more than 100 µM; in the assay with MDA-MB-231 breast, more than 100 µM. Also, the TGI with HCT-15 colon, in the assay on SNB-19 CNS and with KM12 colon was more than 100 µM throughout.

For `Cc1cc(S(=O)(=O)Nc2nnc3cnc4ccccc4n23)c(S)cc1Cl`, the TGI with MALME-3M melanoma, in the assay on T-47D breast, in the assay with A549 NSCLC, in the assay on MDA-MB-435, with SK-OV-3 ovarian and in the assay on HCC-2998 colon was more than 100 µM in each case. In addition, the TGI in the assay with MDA-MB-231 breast, in the assay with HCT-15 colon, in the assay with SNB-19 CNS and in the assay on KM12 colon was more than 100 µM throughout.

Turning to `O=C(O)c1cnc(-n2[nH]c3c(c2=O)CCCC3)[nH]c1=O`, the TGI in the assay on MALME-3M melanoma, in the assay with T-47D breast, in the assay on A549 NSCLC, in the assay on MDA-MB-435, in the assay with SK-OV-3 ovarian and in the assay with MDA-MB-231 breast was more than 100 µM throughout. Moreover, the TGI with HCT-15 colon, in the assay with SNB-19 CNS and with KM12 colon was more than 100 µM each time.

As to `NC(CSSCC(N)=NCC12CC3CC(CC(C3)C1)C2)=NCC12CC3CC(CC(C3)C1)C2`, the TGI in the assay on MALME-3M melanoma is 33.6 µM; in the assay on T-47D breast, more than 100 µM; with A549 NSCLC, 31.3 µM; in the assay with MDA-MB-435 it was 28.1 µM; with SK-OV-3 ovarian, 36.5 µM; with MDA-MB-231 breast, 16.2 µM. Further, the TGI in the assay on HCT-15 colon amounted to 25 µM; in the assay with SNB-19 CNS, 41.5 µM; with KM12 colon, 29 µM.

In the case of `N=c1c2c(=S)n(-c3ccccc3)c(=S)n(-c3ccccc3)c2nc(SCCN2CCCC2)n1-c1ccccc1`, the TGI with MALME-3M melanoma amounted to 3.87 µM; with T-47D breast, 8.44 µM; in the assay on A549 NSCLC, 8.5 µM; in the assay with MDA-MB-435, 3.82 µM; in the assay on SK-OV-3 ovarian it was 25.3 µM; in the assay with HCC-2998 colon, 2.78 µM. In addition, the TGI with MDA-MB-231 breast was found to be 3.52 µM; in the assay with HCT-15 colon, 3.86 µM; with SNB-19 CNS it was 31.6 µM; in the assay on KM12 colon, 11.6 µM.

For `CC(C)(C)c1cc(OCc2nn3c(Cc4ccccc4)nnc3s2)c(Cl)cc1OCc1nn2c(Cc3ccccc3)nnc2s1`, the TGI in the assay with MALME-3M melanoma is 36.6 µM; in the assay on T-47D breast, more than 100 µM; with A549 NSCLC it was more than 100 µM; in the assay on MDA-MB-435 it was more than 100 µM; in the assay with SK-OV-3 ovarian, more than 100 µM; in the assay on HCC-2998 colon, more than 100 µM. In addition, the TGI with MDA-MB-231 breast, in the assay with HCT-15 colon, in the assay on SNB-19 CNS and in the assay with KM12 colon was more than 100 µM in each case.
